From patent US9051290B2, “Biaryl phosphodiesterase inhibitors” (LEO PHARMA A/S, priority 2010, dated 2015)

What follows are molecules tested against Human recombinant PDE4 (Genbank accession no NM—006203) (Homo sapiens, UniProt Q08499) (assay: PDE4 assay (SPA, cleavage of cAMP)). Conditions: 1 hour incubation, test compound up to 10 μM, cAMP 1×10^−5M, read-out: PDE4 IC50 range.
Assay type: biochemical
Procedure: Human recombinant PDE4 (Genbank accession no NM_006203) was incubated for 1 hour with the test compound at concentrations up to 10 μM, with cAMP (1×10^−5M), and with a low amount (0.021 MBq) of radioactively labelled cAMP. At the end of the incubation, the cleavage of the substrate was evaluated by the binding of the AMP product to SPA beads, which generate chemoluminescence when bound to the radioactive tracer. The AMP product inhibited the binding of the radioactive tracer to the beads, and the luminescent signal was competed.
The results were calculated as the molar concentrations resulting in 50% inhibition of the substrate cleavage compared to controls samples, and are expressed as a range of IC50 (M).
The compounds of the present invention were tested in the PDE4 assay.

Human recombinant PDE4 (Genbank accession no NM—006203), sequence (Q08499 1-673 isoform Q08499-2): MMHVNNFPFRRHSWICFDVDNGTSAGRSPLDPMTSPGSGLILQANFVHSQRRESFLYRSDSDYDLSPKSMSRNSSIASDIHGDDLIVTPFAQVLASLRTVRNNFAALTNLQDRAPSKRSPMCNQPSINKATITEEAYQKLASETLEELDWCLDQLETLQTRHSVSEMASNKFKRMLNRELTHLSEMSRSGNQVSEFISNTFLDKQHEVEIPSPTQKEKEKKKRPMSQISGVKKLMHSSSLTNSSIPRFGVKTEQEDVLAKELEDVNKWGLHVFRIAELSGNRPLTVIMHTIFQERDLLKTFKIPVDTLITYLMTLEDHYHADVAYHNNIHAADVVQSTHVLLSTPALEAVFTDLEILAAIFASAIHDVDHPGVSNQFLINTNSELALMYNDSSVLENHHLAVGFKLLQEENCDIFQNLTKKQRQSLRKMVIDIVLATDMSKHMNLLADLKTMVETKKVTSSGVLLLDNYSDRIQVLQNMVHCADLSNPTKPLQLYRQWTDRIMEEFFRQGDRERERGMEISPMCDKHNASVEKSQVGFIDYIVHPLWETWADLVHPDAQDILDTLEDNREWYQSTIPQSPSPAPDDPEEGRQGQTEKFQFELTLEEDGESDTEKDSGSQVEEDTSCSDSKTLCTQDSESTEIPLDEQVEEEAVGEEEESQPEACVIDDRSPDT

Structure (SMILES)	IC50 [nM]
COCC(=O)NCC1(COc2c(-c3cccc4c3CCC4=O)ccc(OC)c2OC)COC1 [Compound 195, N-{3-[2,3-Dimethoxy-6-(1-oxo-indan-4-yl)-phenoxymethyl]-oxetan-3-ylmethyl}-2-methoxy-acetamide]	< 100
COc1ccc(-c2ccc3c(c2)COC3=O)c(OCc2ccc(C(=O)N(C)C)cc2)c1OC [Compound 139, 4-[2,3-Dimethoxy-6-(1-oxo-1,3-dihydro-isobenzofuran-5-yl)-phenoxymethyl]-N,N-dimethyl-benzamide]	< 100
CCNC(=O)OCC1(COc2c(-c3ccc4c(c3)CNC4=O)ccc(OC)c2OC)COC1 [Compound 214, Ethyl-carbamic acid 3-[2,3-dimethoxy-6-(1-oxo-2,3-dihydro-1H-isoindol-5-yl)-phenoxymethyl]-oxetan-3-ylmethyl ester]	≥ 500
COCC(C)(C)COc1c(-c2ccc3c(c2)CNC3=O)ccc(OC)c1OC [Compound 219, 5-[3,4-Dimethoxy-2-(3-methoxy-2,2-dimethyl-propoxy)-phenyl]-2,3-dihydro-isoindol-1-one]	< 100
COCC1(COc2c(-c3cccc4c3CCC4=O)ccc(OC)c2OC)CC1 [Compound 178, 4-[3,4-Dimethoxy-2-(1-methoxymethyl-cyclopropylmethoxy)-phenyl]-indan-1-one]	< 100
COc1ccc(-c2ccc3c(c2)COC3=O)c(OCC2(CO)COC2)c1OC [Compound 134, 5-[2-(3-Hydroxymethyl-oxetan-3-ylmethoxy)-3,4-dimethoxy-phenyl]-3H-isobenzofuran-1-one]	< 100
COc1ccc(-c2cccc3c2CCC3=O)c(OCc2ccc(S(C)(=O)=O)cc2)c1OC [Compound 103, 4-[2-(4-Methanesulfonyl-benzyloxy)-3,4-dimethoxy-phenyl]-indan-1-one]	< 100
COC(=O)C(C)(C)COc1c(-c2ccc3c(c2)CCC3=O)ccc(OC)c1OC [Compound 165, 3-[2,3-Dimethoxy-6-(1-oxo-indan-5-yl)-phenoxy]-2,2-dimethyl-propionic acid methyl ester]	< 100
COc1ccc(-c2ccc3c(c2)COC3=O)c(OCC(C)(C)C)c1OC [Compound 132, 5-[2-(2,2-Dimethyl-propoxy)-3,4-dimethoxy-phenyl]-3H-isobenzofuran-1-one]	< 100
COc1ccc(-c2ccc3c(c2)CNC3=O)c(OCc2ccc(S(C)(=O)=O)cc2)c1OC [Compound 150, 5-[2-(4-Methanesulfonyl-benzyloxy)-3,4-dimethoxy-phenyl]-2,3-dihydro-isoindol-1-one]	< 100
COc1ccc(-c2cccc3c2CCC3=O)c(OCC2(CO)CC2)c1OC [Compound 177, 4-[2-(1-Hydroxymethyl-cyclopropylmethoxy)-3,4-dimethoxy-phenyl]-indan-1-one]	< 100
CNC(=O)c1ccc(COc2c(-c3cccc4c3COC4=O)ccc(OC)c2OC)cc1 [Compound 117, 4-[2,3-Dimethoxy-6-(1-oxo-1,3-dihydro-isobenzofuran-4-yl)-phenoxymethyl]-N-methyl-benzamide]	< 100
COc1ccc(-c2cccc3c2CCC3=O)c(OCCC(C)C)c1OC [Compound 101, 4-[3,4-Dimethoxy-2-(3-methyl-butoxy)-phenyl]-indan-1-one]	< 100
COc1ccc(-c2ccc3c(c2)CNC3=O)c(OCCC(C)(C)C)c1OC [Compound 152, 5-[2-(3,3-Dimethyl-butoxy)-3,4-dimethoxy-phenyl]-2,3-dihydro-isoindol-1-one]	< 100
COc1ccc(-c2ccc3c(c2)CCC3=O)c(OCCC(C)(C)C)c1OC [Compound 123, 5-[2-(3,3-Dimethyl-butoxy)-3,4-dimethoxy-phenyl]-indan-1-one]	< 100
CCNC(=O)OCC1(COc2c(-c3ccc4c(c3)COC4=O)ccc(OC)c2OC)COC1 [Compound 213, Ethyl-carbamic acid 3-[2,3-dimethoxy-6-(1-oxo-1,3-dihydro-isobenzofuran-5-yl)-phenoxymethyl]-oxetan-3-ylmethyl ester]	< 100
COc1ccc(-c2ccc3c(c2)CCC3=O)c(OCc2ccc(C(N)=O)cc2)c1OC [Compound 124, 4-[2,3-Dimethoxy-6-(1-oxo-indan-5-yl)-phenoxymethyl]-benzamide]	< 100
COc1ccc(-c2cccc3c2CCC3=O)c(OCc2ccc(C(=O)N(C)C)cc2)c1OC [Compound 109, 4-[2,3-Dimethoxy-6-(1-oxo-indan-4-yl)-phenoxymethyl]-N,N-dimethyl-benzamide]	< 100
COc1ccc(-c2ccc3c(c2)OCC3=O)c(OCC(C)C)c1OC [Compound 176, 6-(2-Isobutoxy-3,4-dimethoxy-phenyl)-benzofuran-3-one]	100 to 500

Structure (SMILES)	IC50 [nM]
CCCC(=O)NCC1(COc2c(-c3cccc4c3CCC4=O)ccc(OC)c2OC)CC1 [Compound 184, N-{1-[2,3-Dimethoxy-6-(1-oxo-indan-4-yl)-phenoxymethyl]-cyclopropylmethyl}-butyramide]	< 100
CNC(=O)C(C)(C)COc1c(-c2cccc3c2CCC3=O)ccc(OC)c1OC [Compound 200, 3-[2,3-Dimethoxy-6-(1-oxo-indan-4-yl)-phenoxy]-2,2,N-trimethyl-propionamide]	< 100
COc1ccc(-c2cccc3c2CCC3=O)c(OCC(C)(C)C(=O)N2CCOCC2)c1OC [Compound 204, 4-[2-(2,2-Dimethyl-3-morpholin-4-yl-3-oxo-propoxy)-3,4-dimethoxy-phenyl]-indan-1-one]	< 100
COc1ccc(-c2ccc3c(c2)CNC3=O)c(OCc2cccc(S(C)(=O)=O)c2)c1OC [Compound 160, 5-[2-(3-Methanesulfonyl-benzyloxy)-3,4-dimethoxy-phenyl]-2,3-dihydro-isoindol-1-one]	< 100
CCNC(=O)OCC1(COc2c(-c3cccc4c3CCC4=O)ccc(OC)c2OC)COC1 [Compound 189, Ethyl-carbamic acid 3-[2,3-dimethoxy-6-(1-oxo-indan-4-yl)-phenoxymethyl]-oxetan-3-ylmethyl ester]	< 100
COc1ccc(-c2ccc3c(c2)CCC3=O)c(OCC(C)C)c1OC [Compound 169, 5-(2-Isobutoxy-3,4-dimethoxy-phenyl)-indan-1-one]	< 100
COc1ccc(-c2cccc3c2CCC3=O)c(OCC2(COC(=O)NC(C)C)CC2)c1OC [Compound 180, Isopropyl-carbamic acid 1-[2,3-dimethoxy-6-(1-oxo-indan-4-yl)-phenoxymethyl]-cyclopropylmethyl ester]	< 100
COC(=O)C(C)(C)COc1c(-c2cccc3c2CCC3=O)ccc(OC)c1OC [Compound 162, 3-[2,3-Dimethoxy-6-(1-oxo-indan-4-yl)-phenoxy]-2,2-dimethyl-propionic acid methyl ester]	< 100
COc1ccc(-c2cccc3c2CCC3=O)c(OCCC(C)(C)C)c1OC [Compound 105, 4-[2-(3,3-Dimethyl-butoxy)-3,4-dimethoxy-phenyl]-indan-1-one]	< 100
COc1ccc(-c2ccc3c(c2)CCC3=O)c(OCC(C)(C)CO)c1OC [Compound 125, 5-[2-(3-Hydroxy-2,2-dimethyl-propoxy)-3,4-dimethoxy-phenyl]-indan-1-one]	< 100
COc1ccc(-c2ccc3c(c2)CCC3=O)c(OCC(C)(C)C(=O)NC(C)C)c1OC [Compound 208, 3-[2,3-Dimethoxy-6-(1-oxo-indan-5-yl)-phenoxy]-N-isopropyl-2,2-dimethyl-propionamide]	≥ 500
COCC(C)(C)COc1c(-c2cccc3c2CCC3=O)ccc(OC)c1OC [Compound 217, 4-[3,4-Dimethoxy-2-(3-methoxy-2,2-dimethyl-propoxy)-phenyl]-indan-1-one]	< 100
COc1ccc(-c2ccc3c(c2)COC3=O)c(OCC2CCC2)c1OC [Compound 133, 5-(2-Cyclobutylmethoxy-3,4-dimethoxy-phenyl)-3H-isobenzofuran-1-one]	< 100
CNC(=O)c1ccc(COc2c(-c3ccc4c(c3)CNC4=O)ccc(OC)c2OC)cc1 [Compound 155, 4-[2,3-Dimethoxy-6-(1-oxo-2,3-dihydro-1H-isoindol-5-yl)-phenoxymethyl]-N-methyl-benzamide]	< 100
COc1ccc(-c2ccc3c(c2)CNC3=O)c(OCC2CCC2)c1OC [Compound 149, 5-(2-Cyclobutylmethoxy-3,4-dimethoxy-phenyl)-2,3-dihydro-isoindol-1-one]	< 100
CCOC(=O)NCC1(COc2c(-c3cccc4c3CCC4=O)ccc(OC)c2OC)CC1 [Compound 186, {1-[2,3-Dimethoxy-6-(1-oxo-indan-4-yl)-phenoxymethyl]-cyclopropylmethyl}-carbamic Acid Ethyl Ester]	< 100
COc1ccc(-c2ccc3c(c2)C(C)N(C)C3=O)c(OCC(C)C)c1OC (stereo not shown) [Compound 171, 5-(2-Isobutoxy-3,4-dimethoxy-phenyl)-2,3-dimethyl-2,3-dihydro-isoindol-1-one]	≥ 500
COc1ccc(-c2ccc3c(c2)COC3=O)c(OCc2cccc(C(=O)N(C)C)c2)c1OC [Compound 140, 3-[2,3-Dimethoxy-6-(1-oxo-1,3-dihydro-isobenzofuran-5-yl)-phenoxymethyl]-N,N-dimethyl-benzamide]	< 100
